Patent US20150140121A1, “Compositions and Methods for Tight Junction Modulation” (Lankenau Institute for Medical Research, priority 2012, published 2015)
Read-outs that look alike come from different tables or passages of the source.

How the values were obtained:
occludin [1] = conditions: selenium (e.g., 100 ng/ml); Martin et al. 2007; cited from earlier work
[2] = test system: mammary epithelial barrier; conditions: selenium at supplemental concentration (e.g., 100 ng/ml); Martin et al. 2007; cited from earlier work
[3] = test system: mammary epithelial barrier; conditions: selenium (e.g., 100 ng/ml), Martin et al. 2007; cited from earlier work
ZO-1 [4] = conditions: selenium (e.g., 100 ng/ml); Martin et al. 2007; cited from earlier work
epithelial TJs = conditions: arginine; Rhoads et al. 2009; cited from earlier work
claudin-1 [5] = conditions: cited from earlier work
TJ = conditions: glutamine; Seth et al. 2004; cited from earlier work
[6] = test system: human colonic (CACO-2) epithelial cell layer; conditions: cited from earlier work
[7] = test system: human colonic (CACO-2) epithelial cell layer; conditions: cited from earlier work; remark: listed apart in the source
Claudin-3 = Claudin-3 expression in LLC-PK1 cell layers (Western immunoblot); assay type: cell-based, porcine; conditions: for Claudin-3: LLC-PK1 cell layers, given as Decr (decrease)
Description: (§1) Zinc has long been known to be efficacious in the treatment of certain types of diarrhea. It has been determined that zinc can render certain TJ barriers less leaky. Zinc effects can vary depending upon the specific type of epithelial layer.

Claudin-2 [8] = test: Claudin-2 expression in LLC-PK1 cell layers (Western immunoblot); assay type: cell-based, porcine; conditions: for Claudin-2: LLC-PK1 cell layers, given as Decr (decrease)
Description: as §1

Occludin [9] = test: Occludin expression in LLC-PK1 cell layers (Western immunoblot); assay type: cell-based, porcine
Description: as §1

LLC-PK1 cell layers [10] = test: Transepithelial electrical resistance (Rt) across LLC-PK1 cell layers; assay type: cell-based, porcine; conditions: for transepithelial resistance: LLC-PK1 cell layers
Experimental: (§2) LLC-PK1 is a porcine cell line model of the kidney proximal tubule.
The effect of zinc and/or quercetin on the electrical resistance across LLC-PK1 renal epithelial cell layers was tested. Briefly, LLC-PK1 renal epithelial cell layers were treated with either 100 μM zinc alone, 400 μM quercetin alone; or both agents together. The stimulation of transepithelial electrical resistance (Rt) by maximally effective concentrations of zinc alone and quercetin alone was in the range of 50-60% of control levels. […] The results shown in FIG. 8 represent the mean+/− standard error for 12 cell layers. P values are for one-sided Student's t tests.

[11] = test system: human colonic (HCT-8) epithelial cell layers; conditions: indole 1 mM; HCT-8 cell layers; Bansal et al. 2010; cited from earlier work
Tricellulin [12] = test: Tricellulin expression in LLC-PK1 cell layers (Western immunoblot); assay type: cell-based, porcine; conditions: for Tricellulin: LLC-PK1 cell layers, given as Decr (decrease)
Description: as §1

Claudin-5 = Claudin-5 expression in LLC-PK1 cell layers (Western immunoblot); assay type: cell-based, porcine; conditions: for Claudin-5: LLC-PK1 cell layers, given as Incr (increase); for expression of Claudin 5: LLC-PK1 cells
Description: as §1

Claudin-1 [13] = test: Claudin-1 expression in LLC-PK1 cell layers (Western immunoblot); assay type: cell-based, porcine
Description: as §1

claudin-2 [14] = conditions: indole 1 mM; HCT-8 cell layers; Bansal et al. 2010; cited from earlier work
Claudin-7 = Claudin-7 expression in LLC-PK1 cell layers; assay type: cell-based, porcine
Claudin-4 [15] = test: Claudin-4 expression in LLC-PK1 cell layers (Western immunoblot); assay type: cell-based, porcine; conditions: for Claudin-4: LLC-PK1 cell layers, given as Incr (increase)
Description: as §1

claudin 7 [16] = conditions: quercetin 0.2 mM; CACO-2; Amasheh et al. 2008; cited from earlier work
ZO-2 = conditions: quercetin; independent study, Suzuki et al. 2009; cited from earlier work
LLC-PK1 cell layers [17] = test: Mannitol flux / leak across LLC-PK1 cell layers; assay type: cell-based, porcine; conditions: for Mannitol Flux / mannitol leaking across the cell layer: LLC-PK1 cell layers; for Mannitol Flux: given as Decr (decrease)
Experimental: FIG. 7A provides a graph of transepithelial resistance of untreated (control) LLC-PK1 cell layers or LLC-PK1 cell layers treated with 50 μM, 100 μM, or 200 μM zinc. FIG. 7B provides a graph of ^14C-D-mannitol leak across untreated (control) LLC-PK1 cell layers or LLC-PK1 cell layers treated with 50 μM, 100 μM, or 200 μM zinc.
as §2

claudin 3 [18] = conditions: quercetin 0.2 mM; CACO-2; Amasheh et al. 2008; cited from earlier work
occludin [19] = conditions: cited from earlier work
[20] = test system: colonic (CACO-2) epithelial cell layers; conditions: quercetin treatment; Suzuki et al. 2009; cited from earlier work
claudin-4 [21] = conditions: cited from earlier work
claudin-1 [22] = test: Claudin 1 amount / localization in colonic (CACO-2) epithelial cell layers; assay type: cell-based, human; conditions: 50 or 100 micromolar zinc; CACO-2 cell layer
Description: (§3) When the effects of 50 or 100 micromolar zinc were examined on the TJ permeability of a human colonic (CACO-2) epithelial cell layer, the results were quite different. Here the Rt increased as with the renal epithelium. However, there was an increase—as opposed to a decrease—in a D-mannitol diffusion. In other words, zinc decreased leak to salts but increased leak to small nonelectrolytes. […] Even though the overall cellular content of the tight junction protein(s) may not be affected, zinc may cause a ‘shift’ in certain tight junction protein (e.g., certain claudins) out of the tight junctional complex and into the cell's cytoplasm.

occludin [23] = conditions: zinc supplementation; small intestine; Zhang et al. 2009; cited from earlier work
claudin 7 [24] = test: Claudin 7 amount in colonic (CACO-2) epithelial cell layers; assay type: cell-based, human; conditions: 50 or 100 micromolar zinc; CACO-2 cell layer
Description: as §3

claudin 3 [25] = test: Claudin 3 amount in colonic (CACO-2) epithelial cell layers; assay type: cell-based, human; conditions: 50 or 100 micromolar zinc; CACO-2 cell layer
Description: as §3

claudin 2 = test: Claudin 2 amount in colonic (CACO-2) epithelial cell layers; assay type: cell-based, human; conditions: 50 or 100 micromolar zinc; CACO-2 cell layer
Description: as §3

[26] = test system: human colonic (CACO-2) epithelial cell layer; test: Transepithelial electrical resistance (Rt) across CACO-2 cell layers; assay type: cell-based; conditions: 50 or 100 micromolar zinc; CACO-2 cell layer
Description: as §3

small intestine = conditions: zinc supplementation, Zhang et al. 2009; cited from earlier work
claudin 5 = test: Claudin 5 amount in colonic (CACO-2) epithelial cell layers; assay type: cell-based, human; conditions: 50 or 100 micromolar zinc; CACO-2 cell layer
Description: as §3

[27] = test system: human colonic (CACO-2) epithelial cell layer; test: D-mannitol diffusion across CACO-2 cell layers; assay type: cell-based; conditions: 50 or 100 micromolar zinc; CACO-2 cell layer
Description: as §3

tricellulin [28] = test: Tricellulin amount in CACO-2 cell layers; assay type: cell-based, human; conditions: 50 or 100 micromolar zinc; CACO-2 cell layer
Description: as §3

ZO-1 [29] = conditions: zinc supplementation; small intestine; Zhang et al. 2009; cited from earlier work
occludin [30] = test: Occludin amount / localization in colonic (CACO-2) epithelial cell layers; assay type: cell-based, human; conditions: 50 or 100 micromolar zinc; CACO-2 cell layer
Description: as §3

claudin-4 [31] = test: Claudin 4 amount in colonic (CACO-2) epithelial cell layers; assay type: cell-based, human; conditions: 50 or 100 micromolar zinc; CACO-2 cell layer
Description: as §3

ZO-1 [32] = conditions: zinc; colonic (CACO-2) epithelia; Finamore et al. 2008; cited from earlier work
[33] = glutamine, CACO-2 epithelial cell layers, Li et al. 2009
[34] = quercetin 0.2 mM, CACO-2, Amasheh et al. 2008
[35] = quercetin, independent study, Suzuki et al. 2009
[36] = zinc at 50 and 100 micromolar, LLC-PK1 epithelium
[37] = zinc, LLC-PK1 renal epithelial model

[Se] [Selenium]
cellular redistribution of occludin from cytosolic to junctional regions (occludin [1]): cellular redistribution | Rt [2]: increased | paracellular invasion of cancer cells [3]: decreased | cellular redistribution of ZO-1 from cytosolic to junctional regions (ZO-1 [4]): cellular redistribution

N=C(N)NCCC[C@H](N)C(=O)O [arginine]
barrier-enhancing effects (compared with glutamine) (epithelial TJs): very similar barrier-enhancing effects

NC(=O)CC[C@H](N)C(=O)O [glutamine]
claudin-1 expression (claudin-1 [5]; [33]): increasing | toxicity-related increases in TJ leakiness (TJ): reverse | mannitol diffusion [6, 33]: decreased | Rt [7, 33]: increased

c1ccc2[nH]ccc2c1 [indole]
Claudin-3 (Claudin-3; 1 mM Indole): Decr 20% | effect on claudin 3 (Claudin-3; indole, LLC-PK1 cells): less than 50% | Claudin-2 (Claudin-2 [8]; 1 mM Indole): Decr 40% | effect on claudin 2 (Claudin-2 [8]; indole, LLC-PK1 cells): less than 50% | effect on occludin (Occludin [9]; indole, LLC-PK1 cells): less than 50% | transepithelial resistance (LLC-PK1 cell layers [10]; 1 mM Indole, given as Incr (increase)): Incr 30% | transepithelial resistance (LLC-PK1 cell layers [10]; indole (0.1, 1, 2 mM, FIG. 6)): increased | Rt [11]: increased | Tricellulin (Tricellulin [12]; 1 mM Indole): Decr 10% | effect on tricellulin (Tricellulin [12]; indole, LLC-PK1 cells): less than 50% | Claudin-5 (Claudin-5; 1 mM Indole): Incr 150% | expression of Claudin 5 (Claudin-5; indole (1 mM, FIG. 5B)): upregulated | Claudin-1 (Claudin-1 [13]; 1 mM Indole, LLC-PK1 cell layers, given as Decr (decrease)): Decr 30% | effect on claudin 1 (Claudin-1 [13]; indole, LLC-PK1 cells): less than 50% | abundance of claudin-2 (claudin-2 [14]): decreased | effect on claudin 7 (Claudin-7; indole, LLC-PK1 cells): less than 50% | Claudin-4 (Claudin-4 [15]; 1 mM Indole): Incr 100% | expression of Claudin 4 (Claudin-4 [15]; indole (1 mM, FIG. 5A), LLC-PK1 cells): upregulated

O=c1c(O)c(-c2ccc(O)c(O)c2)oc2cc(O)cc(O)c12 [quercetin]
Claudin-3 (Claudin-3; 400 μM Quercetin): Decr 30% | amount of claudin 7 (claudin 7 [16]): unaffected | amount of claudin 1 (claudin-1 [5]; [34]): unaffected | cellular redistribution of claudin-1 (claudin-1 [5]; [35]): cellular redistribution | Claudin-2 (Claudin-2 [8]; 400 μM Quercetin): Decr 75% | expression of Claudin 2 (Claudin-2 [8]; 400 μM quercetin, LLC-PK1 cells, FIG. 3A): downregulated | transepithelial resistance (LLC-PK1 cell layers [10]; 400 μM Quercetin, given as Incr (increase)): Incr > 20% | transepithelial resistance (LLC-PK1 cell layers [10]; quercetin (100, 200, 400 μM, FIG. 4A)): increased | cellular redistribution of ZO-2 (ZO-2): cellular redistribution | Mannitol Flux (LLC-PK1 cell layers [17]; 400 μM Quercetin): Decr > 20% | mannitol leaking across the cell layer (LLC-PK1 cell layers [17]; quercetin (100, 200, 400 μM, FIG. 4B)): decrease | Tricellulin (Tricellulin [12]; 400 μM Quercetin): Decr 15% | Claudin-5 (Claudin-5; 400 μM Quercetin): Incr 100% | expression of Claudin 5 (Claudin-5; 400 μM quercetin, FIG. 3B): upregulated | TJ permeability to the nonelectrolyte D-mannitol [6, 34]: no significant effect | amount of claudin 3 (claudin 3 [18]): unaffected | TJ permeability to Na+ and Cl− ions [7, 34]: decreased | Rt ([7]; quercetin 0.2 mM, colonic (CACO-2) epithelial cell layers, Amasheh et al. 2008): increased | amount of occludin (occludin [19]; [34]): unaffected | cellular redistribution of occludin (occludin [19]; [35]): cellular redistribution | permeability of the electrically charged dye Lucifer yellow [20]: decreased | TJ content of claudin-4 (claudin-4 [21]; [34]): dramatic increase | increase in claudin-4 (claudin-4 [21]; [35]): confirmed | Claudin-7 (Claudin-7; 400 μM Quercetin, LLC-PK1 cell layers, given as Incr (increase)): Incr 200% | Claudin-4 (Claudin-4 [15]; 400 μM Quercetin): Incr 75%

[Zn] [zinc]
claudin 3 expression by Western immunoblot (Claudin-3; [36]): none had exhibited increased or decreased expression | claudin 1 amount (claudin-1 [22]): no changes | claudin 2 expression by Western immunoblot (Claudin-2 [8]; [36]): none had exhibited increased or decreased expression | shift of claudin 2 out of the tight junctional complex into the cytoplasm (Claudin-2 [8]; [37]): has been observed | levels of occludin (occludin [23]): increased | occludin expression by Western immunoblot (Occludin [9]; [36]): none had exhibited increased or decreased expression | transepithelial resistance (LLC-PK1 cell layers [10]; 100 μM Zn, given as Incr (increase)): Incr > 40% | transepithelial resistance (LLC-PK1 cell layers [10]; zinc (50, 100, 200 μM, FIG. 7A)): increased | transepithelial electrical resistance (Rt) (LLC-PK1 cell layers [10]; zinc at 50 and 100 micromolar, renal proximal tubular-like (LLC-PK1) epithelium): increased | Mannitol Flux (LLC-PK1 cell layers [17]; 100 μM Zn): Decr > 20% | mannitol leaking across the cell layer (LLC-PK1 cell layers [17]; zinc (50, 100, 200 μM, FIG. 7B)): decrease | transepithelial diffusion of D-mannitol (LLC-PK1 cell layers [17]; [36]): decreased | claudin 7 amount (claudin 7 [24]): significant decreases | claudin 3 amount (claudin 3 [25]): no changes | claudin 2 amount (claudin 2): significant decreases | tricellulin expression by Western immunoblot (Tricellulin [12]; [36]): none had exhibited increased or decreased expression | claudin 5 expression by Western immunoblot (Claudin-5; [36]): none had exhibited increased or decreased expression | Rt [26]: increased | leakage of the small non-electrolyte lactulose (small intestine): decreasing | claudin 1 expression by Western immunoblot (Claudin-1 [13]; [36]): none had exhibited increased or decreased expression | localization of occludin (occludin [19]; zinc, colonic (CACO-2) epithelia, Finamore et al. 2008): regulate the localization | claudin 5 amount (claudin 5): no changes | D-mannitol diffusion [27]: increase | tricellulin amount (tricellulin [28]): no changes | levels of ZO-1 (ZO-1 [29]): increased | occludin amount (occludin [30]): no changes | claudin 4 amount (claudin-4 [31]): no changes | localization of ZO-1 (ZO-1 [32]): regulate the localization | claudin 4 expression by Western immunoblot (Claudin-4 [15]; [36]): none had exhibited increased or decreased expression | shift of claudin 4 out of the tight junctional complex into the cytoplasm (Claudin-4 [15]; [37]): has been observed
